Experimental findings from article PMC10214531 (ACS Central Science, 2023) are described below.

Format in all cases: cell-based, human
For test [1], the system named is GLP-1R-mediated Gs activation, Gαs truncation of residues 2-10. The test can be described thus: G protein activation assay (BRET2 TRUPATH), Gαs truncated 2-10. As to conditions: Gαs truncation of residues 2-10, vs WT, HEK-293T. As to the method:
(§1) Cells were treated with 20 μL of each compound.
(§2) Significant difference is accepted at p < 0.05.

The subject of test [2] is GLP-1R-mediated Gs activation, Gαs alanine mutants. The test can be described thus: G protein activation assay (BRET2 TRUPATH), alanine scan of 41 Gαs residues. As to conditions: 16 of 41 Gαs alanine mutants, vs WT. As to the method: as §1, §2
Background: In BRET a luciferase serves as donor, and the signal depends on an acceptor being close.

For the next test, the system named is GLP-1R R344A. The test can be described thus: cAMP accumulation assay (GloSensor).
A further test relates to GLP-1R Y250. The test can be described thus: G protein activation assay (BRET2 TRUPATH). As to conditions: agonist GLP-1, HEK-293T, s.d. The protocol: as §1, §2
The subject of a further test is GLP-1R F169. The test can be described thus: G protein activation assay (BRET2 TRUPATH). Particulars: agonist GLP-1, HEK-293T, s.d. The protocol: as §1, §2
In another test the test system is GLP-1R alanine mutants. The test can be described thus: cAMP accumulation assay (GloSensor), alanine scan of 37 GLP-1R residues. A general note: Changes in cAMP serve as a functional read-out for many G protein-coupled receptors.
The subject of test [3] is GLP-1R-mediated Gs activation, Gαs L394 and L393 substituted. The test can be described thus: G protein activation assay (BRET2 TRUPATH), Gαs double mutant L393 and L394. As to conditions: Gαs L394 and L393 both substituted, vs WT; HEK-293T. As to the method:
as §1, §2

The subject of test [4] is GLP-1R-mediated Gs activation, Gαs L394 to alanine. The test can be described thus: G protein activation assay (BRET2 TRUPATH), Gαs mutant L394 to alanine. Particulars: Gαs L394 replaced by alanine, vs WT; HEK-293T. The protocol:
as §1, §2

Test [5] relates to GLP-1R-mediated Gs activation, Gαs truncation of residues 2-8. The test can be described thus: G protein activation assay (BRET2 TRUPATH), Gαs truncated 2-8. As to conditions: Gαs truncation of residues 2-8, vs WT, HEK-293T. As to the method: as §1, §2
Test [6] has as its system GLP-1R mutants of L172, C174, N177, Y250 and M340. The test can be described thus: cAMP accumulation assay, mutants of functional residues except F169. As to conditions: mutants of six functional residues except F169; four independent experiments.
From the text: The cDNA of human GLP-1R was cloned into vector pcDNA 3.1 or pRK. In the cAMP assay, the GLP-1R sequence comprises the native signal peptide (residues 1–23) and a FLAG tag. In flow cytometry analysis, the GLP-1R sequence contains the same native signal peptide, followed by a FLAG or HA tag. Mutations or deletions for the cAMP assay and flow cytometry were generated using seamless cloning with KOD-Plus-Neo (TOYOBO) and confirmed by DNA sequencing.
After overnight of culture, specified amounts of wild-type or mutant GLP-1R and 0.5 μg of pGloSensor cAMP plasmid were cotransfected into HEK-293T cells using calcium phosphate. After 24 h of culture, the transfected cells were seeded into 384-well plates (12 000 cells per well). cAMP accumulation was measured using the GloSensor cAMP assay kit (Promega) according to the manufacturer’s instructions. In brief, transfected cells were incubated for 30 min in GloSensor cAMP reagent at 37 °C and room temperature.
as §2

As to `CC[C@H](C)[C@H](NC(=O)[C@H](Cc1ccccc1)NC(=O)[C@H](CCC(=O)O)NC(=O)[C@H](CCCCN)NC(=O)[C@H](C)NC(=O)[C@H](C)NC(=O)[C@H](CCC(N)=O)NC(=O)CNC(=O)[C@H](CCC(=O)O)NC(=O)[C@H](CC(C)C)NC(=O)[C@H](Cc1ccc(O)cc1)NC(=O)[C@H](CO)NC(=O)[C@H](CO)NC(=O)[C@@H](NC(=O)[C@H](CC(=O)O)NC(=O)[C@H](CO)NC(=O)[C@@H](NC(=O)[C@H](Cc1ccccc1)NC(=O)[C@@H](NC(=O)CNC(=O)[C@H](CCC(=O)O)NC(=O)[C@H](C)NC(=O)[C@@H](N)Cc1c[nH]cn1)[C@@H](C)O)[C@@H](C)O)C(C)C)C(=O)N[C@@H](C)C(=O)N[C@@H](Cc1c[nH]c2ccccc12)C(=O)N[C@@H](CC(C)C)C(=O)N[C@H](C(=O)N[C@@H](CCCCN)C(=O)NCC(=O)N[C@@H](CCCNC(=N)N)C(N)=O)C(C)C` [GLP-1], the “Gs protein activation mediated by GLP-1R” value in [1] and in test [5] was “significantly attenuated the Gs protein activation” in each case. For the same compound, the “GLP-1 efficacy in Gs activation” value in test [2] is “significant reduction of GLP-1 efficacy in Gs activation for 16 mutants”. Besides, the EC50 (as a rule, the concentration at which the effect is half-maximal) in the test on GLP-1R R344A (agonist GLP-1, HEK-293T, 15 min, 25 °C, surface expression 31±4.03 % WT) is 0.0865 ± 0.0099 nM. Moreover, the Emax came out at 80±4 WT % with GLP-1R R344A (agonist GLP-1, cAMP accumulation, HEK-293T); 13.84±2.59 % WT in the test on GLP-1R Y250; 101.04±3.59 % WT with GLP-1R F169. In addition, in the test with GLP-1R alanine mutants (18 of 37 GLP-1R alanine mutants, vs WT), the “GLP-1 potency in cAMP signaling induction” value is “significant reduction of GLP-1 potency in cAMP signaling induction for 18 mutants”. For the same compound, the “GLP-1 efficacy (cAMP)” value in the test on GLP-1R alanine mutants (two mutants with abnormal expression (gray columns in Figure 5b)) is “deficient GLP-1 efficacy”. In addition, the “GLP-1 activity in G protein dissociation” value in [3] is “completely abolished the GLP-1 activity”. In addition, the “GLP-1 efficacy in inducing G protein dissociation” value in test [4] is given as “decrease in GLP-1 efficacy”.
“exendin-4: another peptide agonist (exendin-4)”: in test [6], the “cAMP signaling vs WT” value is given as “attenuated cAMP signaling”.
In the case of `N#Cc1ccc(COc2cccc(C3CCN(Cc4nc5ccc(C(=O)O)cc5n4C[C@@H]4CCO4)CC3)n2)c(F)c1` [PF 06882961], the “cAMP signaling vs WT” value in test [6] is “attenuated cAMP signaling”.
